Experimental data: paper PMC11876601 (Molecular Systems Biology, 2025)
Several values for one entry are separate records, joined by “and”; a condition that tells them apart may be missing. Equal entries are not always repeated. Where two headings read alike, the source gives them in different places.

Tested on: AsPC-1 cells
Assay: Cell proliferation assay, chemodrug + ATR inhibitor (Incucyte confluence, 72 h);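 also: underlying read-out for every value is AsPC-1 confluence after 72 h incubation at 37 °C and 5% CO2, divided by that well's starting confluence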
Details: for EC50: Homo sapiens
Description: Cells were seeded at 5000 cells/well into 96-well flat bottom plates (Eppendorf) and allowed to attach overnight. […] Cells were incubated for 72 h at 37 °C and 5% CO2. Cell confluence readouts at 72 h were either normalized to their initial confluence using the Incucyte software (AsPC-1) or used without prior normalization (all others). […] Each experiment was performed in triplicates, the data was plotted as mean ± standard deviation (s.d.).

`C[C@@H]1COCCN1c1cc(C2([S@](C)(=N)=O)CC2)nc(-c2cc[nH]c3nccc2-3)n1` [Ceralasertib] was tested, and the “Raw data (confluence at 72 h/confluence at 0 h)” value (from here on “Raw data”) (Ceralasertib experiment, replicate R2, titrated drug dose 100 nM) was 2.91, the “Raw data” value (Ceralasertib experiment, replicate R2, titrated drug dose 300 nM) was 3.91 and the “Raw data” value (Ceralasertib experiment, replicate R2, titrated drug dose 1000 nM) was 3.25. The “Raw data” value (Ceralasertib experiment, replicate R2, titrated drug dose 3000 nM) was 1.61, the Response (GEM 0 nM, ATRi 100 nM) was 3.13 and the Response (GEM 0 nM, ATRi 300 nM) was 3.19. The Response (GEM 0 nM, ATRi 1000 nM) was 3.06, the Response (GEM 1 nM + ATRi 100 nM) was 3.00 and the Response (GEM 1 nM + ATRi 300 nM) was 3.18. It also gave a Response (GEM 1 nM + ATRi 1000 nM) of 2.76, a Response (GEM 3 nM + ATRi 100 nM) of 3.15 and a Response (GEM 3 nM + ATRi 300 nM) of 3.26. It also gave a Response (GEM 3 nM + ATRi 1000 nM) of 2.99, a Response (GEM 10 nM + ATRi 100 nM) of 2.74 and a Response (GEM 10 nM + ATRi 300 nM) of 3.12. For the same molecule, the Response (GEM 10 nM + ATRi 1000 nM) was 2.13, the Response (GEM 30 nM + ATRi 100 nM) was 2.24 and the Response (GEM 30 nM + ATRi 300 nM) was 2.10. For the same molecule, the Response (GEM 100 nM + ATRi 100 nM) was 1.89, the Response (GEM 100 nM + ATRi 1000 nM) was 1.42 and the Response (GEM 300 nM + ATRi 100 nM) was 1.67. It also gave a Response (GEM 300 nM + ATRi 300 nM) of 1.55, a Response (GEM 1000 nM + ATRi 100 nM) of 1.60 and a Response (GEM 1000 nM + ATRi 300 nM) of 1.47. For the same molecule, the Response (GEM 3000 nM + ATRi 100 nM) was 1.61, the Response (GEM 3000 nM + ATRi 300 nM) was 1.44 and the EC50 (ASPC1, 72 h, AsPC1, Experiment ATRi (ATR inhibitor alone), single replicates R1-R3) was 1810 nM. It also gave an EC50 (ASPC1, 72 h, read-out: EC50 (cell growth), ATR inhibitor as single agent) of 1720 nM, an EC50 (ASPC1, 72 h, read-out: EC50 mean [nM], AsPC1, Experiment ATRi (ATR inhibitor alone), mean of replicates) of 1720 nM and an EC50 (ASPC1, 72 h, read-out: pEC50, AsPC1 (converted), Experiment ATRi (ATR inhibitor alone), single replicates R1-R3) of 1820 nM. For the same molecule, the EC50 (ASPC1, read-out: EC50 mean [nM], AsPC1, Experiment ATRi (ATR inhibitor alone), mean of replicates) was 1720 nM, the Response (experiment ATRi, GEM 0 nM, ATRi 100 nM, AsPC1, replicates R2, R3) was 1.95 and the Response (experiment GEM+ATRi_dose1, GEM 0 nM, ATRi 100 nM, AsPC1, replicates R2, R3) was 3.76 and 3.38. For the same molecule, the Response (experiment GEM+ATRi_dose1, GEM 1 nM, ATRi 100 nM, AsPC1, replicates R2, R3) was 3.75 and 3.44, the Response (experiment GEM+ATRi_dose1, GEM 3 nM, ATRi 100 nM, AsPC1, replicates R2, R3) was 3.76 and 3.47 and the Response (experiment GEM+ATRi_dose1, GEM 10 nM, ATRi 100 nM, AsPC1, replicates R2, R3) was 3.43. The Response (experiment GEM+ATRi_dose1, GEM 30 nM, ATRi 100 nM, AsPC1, replicates R2, R3) was 2.86 and 2.80, the Response (experiment GEM+ATRi_dose1, GEM 100 nM, ATRi 100 nM, AsPC1, replicates R2, R3) was 1.90 and 2.07 and the Response (experiment GEM+ATRi_dose1, GEM 300 nM, ATRi 100 nM, AsPC1, replicates R2, R3) was 1.72 and 1.75. For the same molecule, the Response (experiment GEM+ATRi_dose1, GEM 1000 nM, ATRi 100 nM, AsPC1, replicates R2, R3) was 1.62 and 1.67, the Response (experiment GEM+ATRi_dose1, GEM 3000 nM, ATRi 100 nM, AsPC1, replicates R2, R3) was 1.55 and 1.53 and the Response (experiment GEM+ATRi_dose2, GEM 0 nM, ATRi 300 nM, AsPC1, replicates R2, R3) was 3.86 and 3.56. For the same molecule, the Response (experiment GEM+ATRi_dose2, GEM 1 nM, ATRi 300 nM, AsPC1, replicates R2, R3) was 3.53 and 2.33, the Response (experiment GEM+ATRi_dose2, GEM 3 nM, ATRi 300 nM, AsPC1, replicates R2, R3) was 3.61 and 3.55 and the Response (experiment GEM+ATRi_dose2, GEM 10 nM, ATRi 300 nM, AsPC1, replicates R2, R3) was 3.45 and 3.38. The Response (experiment GEM+ATRi_dose2, GEM 30 nM, ATRi 300 nM, AsPC1, replicates R2, R3) was 2.30, the Response (experiment GEM+ATRi_dose2, GEM 100 nM, ATRi 300 nM, AsPC1, replicates R2, R3) was 1.61 and the Response (experiment GEM+ATRi_dose2, GEM 300 nM, ATRi 300 nM, AsPC1, replicates R2, R3) was 1.48 and 1.53. The Response (experiment GEM+ATRi_dose2, GEM 1000 nM, ATRi 300 nM, AsPC1, replicates R2, R3) was 1.52 and 1.48, the Response (experiment GEM+ATRi_dose2, GEM 3000 nM, ATRi 300 nM, AsPC1, replicates R2, R3) was 1.45 and the Response (experiment GEM+ATRi_dose3, GEM 0 nM, ATRi 1000 nM, AsPC1, replicates R2, R3) was 3.10 and 2.81. The Response (experiment GEM+ATRi_dose3, GEM 1 nM, ATRi 1000 nM, AsPC1, replicates R2, R3) was 3.14 and 2.98, the Response (experiment GEM+ATRi_dose3, GEM 3 nM, ATRi 1000 nM, AsPC1, replicates R2, R3) was 2.92 and the Response (experiment GEM+ATRi_dose3, GEM 10 nM, ATRi 1000 nM, AsPC1, replicates R2, R3) was 2.52 and 2.34. The Response (experiment GEM+ATRi_dose3, GEM 30 nM, ATRi 1000 nM, AsPC1, replicates R2, R3) was 1.76 and 1.67, the Response (experiment GEM+ATRi_dose3, GEM 100 nM, ATRi 1000 nM, AsPC1, replicates R2, R3) was 1.44 and the Response (experiment GEM+ATRi_dose3, GEM 1000 nM, ATRi 1000 nM, AsPC1, replicates R2, R3) was 1.42. For the same molecule, the “Raw data” value (titrated drug dose 3 nM, replicate R3, experiment (ATRi) Ceralasertib, AsPC-1, 72 h) was 3.28, the “Raw data” value (titrated drug dose 10 nM, replicate R3, experiment (ATRi) Ceralasertib, AsPC-1, 72 h) was 3.61 and the “Raw data” value (titrated drug dose 30 nM, replicate R3, experiment (ATRi) Ceralasertib, AsPC-1, 72 h) was 3.58. For the same molecule, the “Raw data” value (titrated drug dose 300 nM, replicate R3, experiment (ATRi) Ceralasertib, AsPC-1, 72 h) was 3.61, the “Raw data” value (titrated drug dose 1000 nM, replicate R3, experiment (ATRi) Ceralasertib, AsPC-1, 72 h) was 3.17 and the “Raw data” value (titrated drug dose 3000 nM, replicate R3, experiment (ATRi) Ceralasertib, AsPC-1, 72 h) was 1.6. For the same molecule, the “Raw data” value (titrated drug dose 10000 nM, replicate R3, experiment (ATRi) Ceralasertib, AsPC-1, 72 h) was 1.25.
